Literature values, collected in US4801594A, “Aromatase inhibitors” (Eli Lilly and Company, priority 1984, dated 1989).

Tested on: breast cancer
Conditions: known aromatase inhibitors; see Cancer Research, Vol. 42, Suppl. 8: 3261s (1982)

| SMILES | effect in treatment of breast cancer |
| --- | --- |
| C[C@]12C=CC(=O)C=C1CC[C@@H]1[C@@H]2CC[C@]2(C)OC(=O)CC[C@@H]12 [testolactone] | beneficial effect |
| CCC1(c2ccc(N)cc2)CCC(=O)NC1=O (centres unmarked) [aminoglutethimide] | beneficial effect |
